In patent US10654872B1, “Polymorphs of dolutegravir and salts thereof” (Laurus Labs Limited, priority 2015, dated 2020):

What was measured:
Format in all cases: physicochemical
[1] = Thermal stability of Form-L9 in oven at 60° C. and 100° C. (PXRD, DSC); conditions: for Form after heating, DSC / Form after heating, PXRD: 24 hrs
Procedure: Dolutegravir sodium Form-L9 was kept in an oven at 60° C. and 100° C. for 24 hrs.

[2] = Hygroscopic study at 85% relative humidity; conditions: room temperature, one week (24, 48, 72, 168 hours)
Procedure: Dolutegravir sodium Form-L9 was exposed to 85% relative humidity at room temperature for one week and was analyzed by PXRD at different time intervals such as 24 hours, 48 hours, 72 hours and 168 hours. […] The overlaid PXRD pattern of dolutegravir sodium Form-L9 subjected to hygroscopic study at 85% RH is represented as Figure-25.

[3] = Stability data of dolutegravir sodium Form-L9 stored at 40±2° C./75±5% RH
Procedure: Dolutegravir sodium Form-L9 was packed in a Low density polyethylene (LDPE) bag with a strip seal, which is again kept in a second low density polyethylene bag with strip seal. The LDPE bag is kept in a high density polyethylene (HDPE) container and well closed and loaded for stability chamber. […] The purity of dolutegravir sodium was analysed using high performance liquid chromatography (“HPLC”) with the conditions is tabulated below: [table]

[4] = Aqueous solubility at different pH buffers, UV quantification

C[C@@H]1CCO[C@H]2Cn3cc(C(=O)NCc4ccc(F)cc4F)c(=O)c(O)c3C(=O)N12 [Form-L9, dolutegravir sodium]
Stability at elevated temperatures ([1]; 60° C. and 100° C. for 24 hours): stable even at elevated temperatures | Form after heating, DSC ([1]; 60° C.): Form-L9 | Form after heating, PXRD ([1]; 60° C.): Form-L9 | Form after heating, DSC ([1]; 100° C.): Form-L9 | Form after heating, PXRD ([1]; 100° C.): Form-L9 | Polymorphic nature after thermal study (PXRD and DSC) ([1]; oven at 60° C. and 100° C. for 24 hrs): same polymorphic nature retained | Polymorphic nature after hygroscopic study [2]: same polymorphic nature retained | Des fluoro dolutegravir ([3]; 1 month): 0.08 % w/w | PXRD (polymorphic form) ([3]; 1 month): Form-L9 | Purity by HPLC ([3]; 1 month): 99.9 % w/w | Water content ([3]; 1 month): 1.9 % w/w | Des fluoro dolutegravir ([3]; 2 month): 0.09 % w/w | PXRD (polymorphic form) ([3]; 2 month): Form-L9 | Purity by HPLC ([3]; 2 month): 99.9 % w/w | Water content ([3]; 2 month): 2 % w/w | Des fluoro dolutegravir ([3]; 3 month): 0.10 % w/w | PXRD (polymorphic form) ([3]; 3 month): Form-L9 | Purity by HPLC ([3]; 3 month): 99.8 % w/w | Water content ([3]; 3 month): 2.3 % w/w | Des fluoro dolutegravir ([3]; Initial): 0.09 % w/w | PXRD (polymorphic form) ([3]; Initial): Form-L9 | Purity by HPLC ([3]; Initial): 99.8 % w/w | Water content ([3]; Initial): 2.2 % w/w | Polymorphic and chemical stability on storage ([3]; at least up to three months, LDPE bags in HDPE container): retained the same polymorphic and chemical identity | Solubility profile versus dolutegravir sodium anhydrous form [4]: comparable
